Reference: patent publication US9849097B2, “Dosage forms containing terbutaline sulphate” (Jagotec AG, priority 2012, dated 2017)

Experiments:
[1] = accelerated stability study on the drug; assay type: physicochemical; settings: 60° C. and 90% relative humidity for up to 4 weeks
Procedure: Thus, in the development of a terbutaline sulphate dosage form, the applicant carried out accelerated stability studies on the drug at a temperature of 60° C. and 90% relative humidity for up to 4 weeks.

[2] = oxidative degradation, aqueous solutions; cited from earlier work

SMILES	degradation products [1]	stability of drug substance [2]
CC(C)(C)NCC(O)c1cc(O)cc(O)c1 (centres unmarked) [terbutaline sulphate]	No degradation products were observed	
CC(C)(C)NCC(O)c1cc(O)cc(O)c1 (centres unmarked) [terbutaline]		highly stable
